Series [1] concerns GSK-3β-mediated tau phosphorylation (pS396) in SH-SY5Y lysate. The series can be described thus: Whole-cell lysate GSK-3β assay with human Tau pS396 ELISA. The format is biochemical. The note with it: 2, 10 and 50 μM, 2 hours, 37° C., lysate with 0.25% GSK-3β. On the procedure:
Whole-Cell Lysate GSK-3β Assay.
The assay procedure was followed as described (Liang, et al. (2016) ACS Chem. Neurosci. 7:912-923). SH-SY5Y cells were washed with phosphate-buffered saline (PBS) and lysed with cell extraction buffer containing 10 mM Tris, pH 7.4, 100 mM NaCl, 1 mM EDTA, 1 mM EGTA, 1 mM NaF, 20 mM Na4P2O7, 2 mM Na3VO4, 1% Triton X-100, 10% glycerol, 0.1% sodium dodecyl sulfate (SDS), 0.5% sodium deoxycholate, 1 mM phenylmethanesulfonyl fluoride (PMSF) and a protease inhibitor cocktail. Lysate was diluted with kinase buffer (40 mM Tris, pH 7.5, 20 mM MgCl2, 50 μM DTT, 400 μM ATP) to afford a concentration of 5 μg/μL of total protein, and split into aliquots. Recombinant human GSK-3β was fortified into lysate aliquots to a final concentration of 0.25% (wt/wt) of total protein. A lysate aliquot fortified with heat-inactivated GSK-3β was used as a negative control. The fortified lysate aliquots were incubated with test sample or 5% DMSO vehicle at 37° C. for 2 hours followed by ELISA analysis.
The quantitative determination of phosphorylated human tau at GSK-3β specific pS396 site was conducted by taking 50 μL diluted cell lysate and using a specific antibody against human tau [pS396] in a sandwich ELISA according to the manufacturer's protocol. Tau phosphorylation was quantified by measuring the absorbance at 450 nm in a microtiter plate reader. The analysis was collected in quadruplicate of two independent experiments.
(In general: In an ELISA, binding on a coated surface is turned into a signal by an enzyme label.)

Series [2] in a line: PAMPA passive membrane permeability. Conditions: for R (percent recovery) / Pe: 20 μM, pH 7.4, 5 hours; for Pe: room temperature, mean ±SD; for permeability compared to isoorientin 1: 5-hour incubation; for Permeability classification: PAMPA. On the procedure: Samples were run in quadruplicate.
Oral administration is noninvasive and is preferred for chronical diseases such as Alzheimer's disease and other CNS disorders. […] In the PAMPA model, the amount of target compounds diffused from a donor compartment to an acceptor compartment through a tri-layer phospholipid pre-coated membrane are measured to assess oral-absorption potential of drug candidates. In the present study, 1, 4, 9, 17, 21 and 30 were evaluated with the PAMPA assay.
A general note: PAMPA measures passive passage across an artificial lipid membrane.

The target of series [3] is GSK-3β (Homo sapiens, UniProt P49841). The series can be described thus: Kinase luminescent assay (ADP-Glo), GSK-3β inhibition. The format is biochemical. The note with it: 25 μM ATP, 1 hour, room temperature; mean of quadruplicate of two experiments; read-out: IC50 against GSK-3β. As for the experimental part: Kinase Luminescent Assay.
GSK-3β, sequence (P49841 whole entry): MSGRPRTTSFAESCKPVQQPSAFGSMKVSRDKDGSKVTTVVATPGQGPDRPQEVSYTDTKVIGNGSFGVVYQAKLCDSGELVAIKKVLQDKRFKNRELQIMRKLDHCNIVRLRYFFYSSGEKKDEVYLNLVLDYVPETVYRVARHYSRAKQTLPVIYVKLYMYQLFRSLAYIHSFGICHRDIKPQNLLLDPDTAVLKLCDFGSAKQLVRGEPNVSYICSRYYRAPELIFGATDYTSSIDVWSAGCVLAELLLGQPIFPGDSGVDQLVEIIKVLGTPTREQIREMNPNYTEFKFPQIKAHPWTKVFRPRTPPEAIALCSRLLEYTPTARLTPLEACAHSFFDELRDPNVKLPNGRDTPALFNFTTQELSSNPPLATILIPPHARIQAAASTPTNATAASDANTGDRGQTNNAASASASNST
Kinase inhibition was assessed with the ADP-Glo Kinase Assay. […] The reaction mixture was incubated for 1 hour at room temperature followed by the addition of the ADP-Glo′ reagents according to the manufacturer's protocol. The kinase inhibitor staurosporine was used at 1 μM as a reference control. Each data point was collected in quadruplicate of two independent experiments.

The values below come from US11254700B2, “GSK-3β inhibitors and use thereof in methods of treatment” (UNIVERSITY OF HAWAII, priority 2017, dated 2022).

“Also recorded” adds a separate entry of the source.

As usually defined, the IC50 is the point on the concentration scale where inhibition reaches its midpoint. In the case of `COc1ccc(-c2cc(=O)c3c(OC)c([C@@H]4O[C@H](C(=O)NC5CCCCC5)[C@@H](O)[C@H](O)[C@H]4O)c(OC)cc3o2)cc1OC` [Compound 17, (2S,3S,4R,5R,6S)—N-Cyclohexyl-6-(2-(3,4-dimethoxyphenyl)-5,7-dimethoxy-4-oxo-4H-chromen-6-yl)-3,4,5-trihydroxytetrahydro-2H-pyran-2-carboxamide], the “GSK-3β-mediated tau hyperphosphorylation at pS396” value in series [1] was “effectively attenuated tau hyperphosphorylation in a dose-dependent manner; also recorded: attenuate GSK-3β-mediated tau phosphorylation”. Besides, in series [2], the “R (percent recovery)” value is given as 20%, the Pe is on record as 1.77 ± 0.07 ×10^−6 cm/s, the “permeability compared to isoorientin 1” value is on record as “significant increase in permeability” and the Permeability classification result is “high (high (Pe > 1.5 × 10^−6 cm/s))”. The concentration for half-maximal inhibition (IC50) in series [3] amounted to 9 ± 1.3 µM.
Take `COc1ccc(-c2cc(=O)c3c(OC)c([C@@H]4O[C@H](C(=O)NC(C)C)[C@@H](O)[C@H](O)[C@H]4O)c(OC)cc3o2)cc1OC` [Compound 9, (2S,3S,4R,5R,6S)-6-(2-(3,4-Dimethoxyphenyl)-5,7-dimethoxy-4-oxo-4H-chromen-6-yl)-3,4,5-trihydroxy-N-isopropyltetrahydro-2H-pyran-2-carboxamide]: in series [1], the “GSK-3β-mediated tau hyperphosphorylation at pS396” value was “effectively attenuated tau hyperphosphorylation in a dose-dependent manner; also recorded: attenuate GSK-3β-mediated tau phosphorylation”. In addition, in series [2], the “R (percent recovery)” value is 46%, the Pe was 1.55 ± 0.06 ×10^−6 cm/s, the “permeability compared to isoorientin 1” value is on record as “significant increase in permeability” and the Permeability classification result is on record as “high (high (Pe > 1.5 × 10^−6 cm/s))”. Moreover, the half-inhibitory concentration (IC50) in series [3] was 5.4 ± 0.1 µM.
Turning to `COc1ccc(-c2cc(=O)c3c(OC)c([C@@H]4O[C@H](C(=O)NCc5ccccc5)[C@@H](O)[C@H](O)[C@H]4O)c(OC)cc3o2)cc1OC` [Compound 21, (2S,3S,4R,5R,6S)-6-(2-(3,4-Dimethoxyphenyl)-5,7-dimethoxy-4-oxo-4H-chromen-6-yl)-3,4,5-trihydroxy-N-benzyltetrahydro-2H-pyran-2-carboxamide], the “GSK-3β-mediated tau hyperphosphorylation at pS396” value in series [1] is “effectively attenuated tau hyperphosphorylation in a dose-dependent manner; also recorded: attenuate GSK-3β-mediated tau phosphorylation”. Also, in series [2], the “R (percent recovery)” value worked out at 30%, the Pe is given as 1.35 ± 0.08 ×10^−6 cm/s, the “permeability compared to isoorientin 1” value is reported as “significant increase in permeability” and the Permeability classification result is recorded as “medium (medium (1.0 × 10^−6 cm/s ≤ Pe ≤ 1.5 × 10^−6 cm/s))”. The IC50 in series [3] was determined as 15.8 ± 1.2 µM.
